Data on 47 compounds can be found in the supplement of paper PMC8498969.

Each structure is given as a SMILES string. Where only a bound is given, the exact number is not on record here.

Test [1] relates to HEK293. The experiment in a line: maximal inhibition of ZIKV NS1 production (% inhibition); higher = stronger antiviral effect. As for the experimental part:
(§1)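 HEK293 cells in 1536-well plates were pre-treated with compound for 1 h, infected with ZIKV (MOI 1) for 24 h, and NS1 antigen (intra- plus extracellular) was measured by TR-FRET. Confirmation used 11-point 1:3 dilutions, and IC50 and maximal inhibition were fitted in GraphPad Prism.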

In test [2] the test system is HEK293. Nature of the test: cytotoxicity IC50 (ATP content, uninfected cells); higher = less cytotoxic. To be noted: infection: none.
Test [3] deals with HEK293. Nature of the test: IC50 for inhibition of ZIKV NS1 production. As to the method:
as §1

Take `CNC1CCC(N(Cc2cccc(-c3ccncc3)c2)C(=O)c2sc3ccccc3c2Cl)CC1` (stereo not given): in test [1], the maximal inhibition came out at 94. The “cytotoxicity IC50” value in test [2] was > 100 µM. In addition, the IC50 in test [3] was 49 µM.
As for `Cc1cc(Nc2cc(NC(=O)c3c(Cl)cccc3Cl)ccn2)nc(N)n1`, the maximal inhibition in test [1] is 97. The “cytotoxicity IC50” value in test [2] stood at 70 µM. The compound further showed an IC50 in test [3] of 35 µM.
`C[C@@H]1O[C@@H](O[C@H]2C[C@@H](O)[C@]3(CO)[C@H]4[C@H](O)C[C@]5(C)[C@@H](C6=CC(=O)OC6)CC[C@]5(O)[C@@H]4CC[C@]3(O)C2)[C@H](O)[C@H](O)[C@H]1O` displayed a maximal inhibition in test [1] of 102. The “cytotoxicity IC50” value in test [2] came out at 0.19 µM. Also, the IC50 in test [3] amounted to 0.17 µM.
`CC(NCc1ccc2c(c1)nc(NC(=O)c1ccc(-c3cn[nH]c3)s1)n2CC(C)(C)O)C(C)(C)C` (stereo not given) showed a maximal inhibition in test [1] of 101. For the same compound, in test [2], the “cytotoxicity IC50” value was > 100 µM. In addition, the IC50 in test [3] was 9.6 µM.
With `COc1cccc(-c2ccc(NC(=O)C3=C(C(=O)O)CCC3)c(F)c2)c1`, in test [1], the maximal inhibition turned out to be 107. Further, the “cytotoxicity IC50” value in test [2] amounted to 1.9 µM. In test [3], the half-maximal inhibitory concentration (IC50) was 4 µM.
Consider `S=C(SSC(=S)N1CCCCC1)N1CCCCC1`, for which the maximal inhibition in test [1] is 86. The “cytotoxicity IC50” value in test [2] amounted to 0.097 µM. Moreover, the IC50 in test [3] was found to be 0.87 µM.
As to `Cc1n[nH]c2ccc(-c3cncc(OC[C@@H](N)Cc4c[nH]c5ccccc45)c3)cc12`, in test [1], the maximal inhibition is 103. For the same compound, in test [2], the “cytotoxicity IC50” value was > 100 µM. For the same compound, in test [3], the IC50 stood at 8.5 µM.
Taken in the same sequence, the figures for `OC(c1cc(C(F)(F)F)nc2c(C(F)(F)F)cccc12)C1CCCCN1` (stereo not given) were 97, > 100 µM and 18 µM.
Taken in the same sequence, the figures for `CC(C)c1nn(-c2c(Cl)cccc2Cl)c2nc(Cc3ccc(OCCO)cc3)[nH]c(=O)c12` were 91, > 100 µM and 0.27 µM.
Taken in the same sequence, the figures for `CC(C)C[C@H](NC(=O)CNC(=O)c1cc(Cl)ccc1Cl)B1OC(=O)C(CC(=O)O)(CC(=O)O)O1` were 94, 1.6 µM and 0.2 µM.
In the case of `O=c1[nH]nc(Sc2ncc([N+](=O)[O-])s2)n1-c1ccc2c(c1)OCCO2`, in test [1], the maximal inhibition stood at 97. Further, the “cytotoxicity IC50” value in test [2] came to 12 µM. In test [3], this compound registered a concentration for half-maximal inhibition (IC50) of 8 µM.
The corresponding values for `COc1ccc(-c2cc3c(C)nc(N)nc3n([C@H]3CC[C@H](OCCO)CC3)c2=O)cn1` are 78, 0.47 µM and 1.5 µM.
In test [1], `c1ccc2c(CCNc3ccc(Nc4ccncc4)cc3)c[nH]c2c1` showed a maximal inhibition of 51. For the same compound, the “cytotoxicity IC50” value in test [2] was > 100 µM. This compound gave an IC50 in test [3] of 23 µM.
As to `O=C(NC1CCNCC1)c1n[nH]cc1NC(=O)c1c(Cl)cccc1Cl`, the maximal inhibition in test [1] came out at 91. Besides, the “cytotoxicity IC50” value in test [2] is 22 µM. Moreover, the IC50 in test [3] amounted to 3.1 µM.
In turn, `OC[C@H](Cc1ccccc1)Nc1nc(Oc2ccc3c(c2)CCC3)nc2c1ncn2Cc1ccc(-c2ccccc2)cc1` showed a maximal inhibition in test [1] of 100. Further, the “cytotoxicity IC50” value in test [2] came out at 90 µM. Further, the IC50 in test [3] is 7.8 µM.
In turn, `Nc1nc(Cl)nc2c1ncn2[C@@H]1O[C@H](CO)[C@@H](O)[C@@H]1F` yielded a maximal inhibition in test [1] of 94. The “cytotoxicity IC50” value in test [2] was > 100 µM. The IC50 in test [3] is 41 µM.
The corresponding values for `Nc1c2ccccc2nc2ccccc12` are 102, 100 µM and 21 µM.
Taken in the same sequence, the figures for `CC(C)[C@]12O[C@H]1[C@@H]1O[C@]13[C@]1(O[C@H]1C[C@H]1C4=C(CC[C@@]13C)C(=O)OC4)[C@@H]2O` were 73, > 100 µM and 0.47 µM.
Taken in the same sequence, the figures for `[O-][n+]1ccccc1SSc1cccc[n+]1[O-]` were 98, 0.16 µM and 1.4 µM.
`Cc1cnc(NC(=O)Nc2cc(Br)c(C)cc2OC[C@@H]2CNCCO2)cn1`: the maximal inhibition in test [1] came out at 101. The “cytotoxicity IC50” value in test [2] is > 100 µM. The compound also showed an IC50 in test [3] of 1.7 µM.
Taken in the same sequence, the figures for `C#CCC(Cc1cnc2nc(N)nc(N)c2n1)c1ccc(C(=O)N[C@@H](CCC(=O)O)C(=O)O)cc1` (stereo not given in full) were 101, 0.46 µM and 0.45 µM.
Taken in the same sequence, the figures for `Cc1cc(Nc2cc(N3CCN(C)CC3)nc(Sc3ccc(NC(=O)C4CC4)cc3)n2)n[nH]1` were 107, > 100 µM and 14 µM.
On to `C[C@H]1O[C@@H](O[C@H]2[C@@H](O)C[C@H](O[C@H]3[C@@H](O)C[C@H](O[C@H]4CC[C@@]5(C)[C@H](CC[C@@H]6[C@@H]5C[C@@H](O)[C@]5(C)[C@@H](C7=CC(=O)OC7)CC[C@]65O)C4)O[C@@H]3C)O[C@@H]2C)C[C@H](O)[C@@H]1O`, for which the maximal inhibition in test [1] is 104. Besides, the “cytotoxicity IC50” value in test [2] was found to be 60 µM. The same compound registered an IC50 in test [3] of 0.15 µM.
Taken in the same sequence, the figures for `COC(=O)Nc1nc2cc(C(=O)c3cccs3)ccc2[nH]1` were 68, > 100 µM and 1.1 µM.
Taken in the same sequence, the figures for `CCCCCC[C@H]1C(=O)O[C@H](C)[C@H](NC(=O)c2cccc(NC=O)c2O)C(=O)O[C@@H](C)[C@@H]1OC(=O)CC(C)C` were 94, 0.0055 µM and 0.012 µM.
`CC[n+]1c(/C=C/C=C2/N(C)c3ccccc3C2(C)C)sc2ccccc21` displayed a maximal inhibition in test [1] of 97. Also, the “cytotoxicity IC50” value in test [2] turned out to be 0.26 µM. This compound showed an IC50 in test [3] of 4 µM.
`COC(=O)Nc1nc2cc(C(=O)c3ccccc3)ccc2[nH]1` gave a maximal inhibition in test [1] of 69. Also, the “cytotoxicity IC50” value in test [2] is > 100 µM. For the same compound, in test [3], the 50% inhibitory concentration (IC50) amounted to 1 µM.
The corresponding values for `CC(C)c1cnn2c(NCc3ccccc3)cc(N[C@@H](CO)[C@H](O)CO)nc12` are 87, > 100 µM and 1.2 µM.
The corresponding values for `CC(C)C[C@H](NC(=O)CNC(=O)c1cc(Cl)ccc1Cl)B(O)O` are 102, 2.1 µM and 0.23 µM.
On to `Cn1c(=O)c(-c2c(Cl)cccc2Cl)cc2cnc(Nc3ccc(N4CCOCC4)cc3)nc21`, for which the maximal inhibition in test [1] was found to be 102. Moreover, in test [2], the “cytotoxicity IC50” value is 6 µM. The same compound showed a half-maximal inhibitory concentration (IC50) in test [3] of 2.1 µM.
Take `COc1cc(NCc2ccc3nc(N)nc(N)c3c2C)cc(OC)c1OC`: the maximal inhibition in test [1] came to 99. In test [2], the “cytotoxicity IC50” value came out at 2.2 µM. Besides, the half-maximal inhibitory concentration (IC50) in test [3] was found to be 1.6 µM.
Regarding `CC(C)C[C@H](NC(=O)[C@H](CCc1ccccc1)NC(=O)CN1CCOCC1)C(=O)N[C@@H](Cc1ccccc1)C(=O)N[C@@H](CC(C)C)C(=O)[C@@]1(C)CO1`, the maximal inhibition in test [1] was determined as 90. Also, the “cytotoxicity IC50” value in test [2] was 0.32 µM. In test [3], this compound had an IC50 of 0.16 µM.
The corresponding values for `CN(C)c1ccc(C(=C2C=CC(=[N+](C)C)C=C2)c2ccccc2)cc1` are 102, 1.8 µM and 1.6 µM.
The compound `CCCCC1C(=O)N(c2ccccc2)N(c2ccc(O)cc2)C1=O` (stereo not given) registered a maximal inhibition in test [1] of 107. Also, in test [2], the “cytotoxicity IC50” value is > 100 µM. The IC50 in test [3] was 17 µM.
For the compound `COc1cc(OC)c(/C=C/S(=O)(=O)Cc2ccc(OC)c(NCC(=O)O)c2)c(OC)c1`, in test [1], the maximal inhibition was determined as 61. For the same compound, the “cytotoxicity IC50” value in test [2] is > 100 µM. Also, the IC50 in test [3] turned out to be 1.4 µM.
The corresponding values for `CCOC(=O)C1=C(C)NC(=S)NC1c1cccc(O)c1` (stereo not given) are 89, > 100 µM and 50 µM.
Regarding `C[C@H]1CCC/C=C/[C@@H]2C[C@H](O)C[C@H]2[C@H](O)/C=C/C(=O)O1`, the maximal inhibition in test [1] worked out at 99. Further, the “cytotoxicity IC50” value in test [2] is > 100 µM. This compound also showed an IC50 in test [3] of 0.43 µM.
In the case of `CC1=CC(=O)c2ccccc2C1=O`, the maximal inhibition in test [1] is 101. In addition, in test [2], the “cytotoxicity IC50” value stood at 45 µM. In test [3], this compound registered an IC50 of 44 µM.
The compound `COc1cc2nc(N3CCN(C(=O)c4ccco4)CC3)nc(N)c2cc1OC` returned a maximal inhibition in test [1] of 104. In addition, the “cytotoxicity IC50” value in test [2] was 40 µM. The IC50 in test [3] turned out to be 18 µM.
Taken in the same sequence, the figures for `CN1CC[C@H](c2c(O)cc(O)c3c(=O)cc(-c4ccccc4Cl)oc23)[C@H](O)C1` were 93, > 100 µM and 1.2 µM.
With `CC(C)(C)CC(C)(C)c1ccc(OCCOCC[N+](C)(C)Cc2ccccc2)cc1`, the maximal inhibition in test [1] was 103. Also, the IC50 in test [3] was found to be 9 µM.
`COc1cccc2nc(-c3cccs3)nc(NN3C(=O)C=C(C)C3=O)c12`: the maximal inhibition in test [1] amounted to 103. The “cytotoxicity IC50” value in test [2] amounted to 50 µM. In addition, the IC50 in test [3] came out at 11 µM.
In turn, `NC(=O)Nc1cc(-c2cccc(F)c2)sc1C(=O)N[C@H]1CCCNC1` came in with a maximal inhibition in test [1] of 99. Moreover, the “cytotoxicity IC50” value in test [2] is > 100 µM. For the same compound, in test [3], the IC50 amounted to 0.37 µM.
The compound `CC[C@H](CC#N)OC(=O)N[C@@H](C)c1cccc(NC(=O)Nc2ccc(-c3cnco3)c(OC)c2)c1` came in with a maximal inhibition in test [1] of 99. In addition, the “cytotoxicity IC50” value in test [2] came to 20 µM. In test [3], this compound showed an IC50 of 0.14 µM.
With `CCc1cnn2c(NCc3ccc[n+]([O-])c3)cc(N3CCCC[C@H]3CCO)nc12`, the maximal inhibition in test [1] was 90. In addition, in test [2], the “cytotoxicity IC50” value is > 100 µM.
`CC[C@@H]1C(=O)N(C)c2cnc(Nc3ccc(C(=O)NC4CCN(C)CC4)cc3OC)nc2N1C1CCCC1`: in test [2], the “cytotoxicity IC50” value was > 100 µM.
Take `CCC(=O)N1CCN(c2ccc(-n3c(=O)ccc4cnc5ccc(-c6cnc7ccccc7c6)cc5c43)cc2C(F)(F)F)CC1`: the “cytotoxicity IC50” value in test [2] amounted to 1.5 µM.

As a reminder, the IC50 is the concentration at which inhibition is half-maximal.
